Reference: patent publication US11918592B2, “Inhibitors of cyclin dependent kinase 7 (CDK7)” (Syros Pharmaceuticals, Inc., priority 2018, dated 2024)
Read-outs that look alike come from different tables or passages of the source.

Columns and labels:
CDK9/Cyclin T1 complex = CDK9/Cyclin T1 complex (Homo sapiens, UniProt P50750); assay: CDK9 kinase inhibition assay (Caliper/LabChip EZ Reader)
Description: (§2) Compounds of the invention were assayed for inhibition of CDK7, CDK9, CDK12, and CDK2 activity at Biortus Biosciences (Jiangyin, Jiangsu Province, P.R. of China) using kinase assays for each CDK developed with a Caliper/LabChip EZ Reader (Perkin Elmer, Waltham, MA).
(§3) Furthermore, the CDK9 inhibition assay used CDK9/Cyclin T1 complex (8 nM) and “5-FAM-CDK9tide” peptide substrate (2 μM, synthesized fluorophore-labeled peptide with the following sequence: 5-FAM-GSRTPMY-NH2 (SEQ ID NO:2) where 5-FAM is defined above and NH2 signifies a C-terminal amide) with 10 mM MgCl2 in the buffer composition listed above. The CDK12 inhibition assay used CDK12 (aa686-1082)/Cyclin K complex (50 nM) and “5-FAM-CDK9tide” (2 μM) as defined above, with 2 mM MgCl2 in the buffer composition above. Additionally, the CDK2 inhibition assay used CDK2/Cyclin E1 complex (0.5 nM) and “5-FAM-CDK7tide” (2 μM) as defined above, with 2 mM MgCl2 in the buffer composition listed above.
(§4) The incubation period at 27° C. for each CDK inhibition assay was chosen such that the fraction of phosphorylated peptide product produced in each assay, relative to the total peptide concentration, was approximately 20% (±5%) for the uninhibited kinase (35 min. for CDK7, 35 min. for CDK2, 3 hr. for CDK12, 15 min. for CDK9).

HCC70 cells = assay: Inhibition of cell proliferation, CyQUANT Direct, HCC70; format: cell-based, human; settings: Homo sapiens, read-out: HCC 70 proliferation calculated IC50
Description: (§1) HCC70 and MB453 cells are cell lines derived from human triple negative breast cancer. COV318 and COV504 cells are cell lines derived from human ovarian cancer. Representative compounds of the invention were tested at different concentrations (from 4 μM to 126.4 pM; 0.5 log serial dilutions) for their ability to inhibit the proliferation of each of these cell lines. Known CDK inhibitors dinaciclib or N-((1S,3R)-3-((5-chloro-4-(1H-indol-3-yl) pyrimidin-2-yl)amino)cyclohexyl)-5-((E)-4-(dimethylamino)but-2-enamido)picolinamide and triptolide were used as positive controls. Cells were seeded at approximately 2,000 cells/well and grown in ATCC-formulated RPMI-1640 Medium (ATCC 30-2001)+10% FBS. The cells were cultured at 37° C. in a humidified chamber in the presence of 5% CO2. Proliferation assays were conducted over a 72-hour time period. CyQUANT® Direct Cell Proliferation Assay (Life Technologies, Chicago, IL USA) was used to assess the anti-proliferative effects of the compounds following manufacturer's directions and utilizing the reagents supplied with the CyQUANT® Direct Cell kit.

CDK2/Cyclin E1 complex = CDK2/Cyclin E1 complex (Homo sapiens, UniProt P24941); assay: CDK2 kinase inhibition assay (Caliper/LabChip EZ Reader)
[1] = biological target: CDK7/Cyclin H/MAT1 complex (Homo sapiens, UniProt P50613); assay: CDK7 kinase inhibition assay (Caliper/LabChip EZ Reader)
Sequence of CDK7/Cyclin H/MAT1 complex (P50613 whole entry): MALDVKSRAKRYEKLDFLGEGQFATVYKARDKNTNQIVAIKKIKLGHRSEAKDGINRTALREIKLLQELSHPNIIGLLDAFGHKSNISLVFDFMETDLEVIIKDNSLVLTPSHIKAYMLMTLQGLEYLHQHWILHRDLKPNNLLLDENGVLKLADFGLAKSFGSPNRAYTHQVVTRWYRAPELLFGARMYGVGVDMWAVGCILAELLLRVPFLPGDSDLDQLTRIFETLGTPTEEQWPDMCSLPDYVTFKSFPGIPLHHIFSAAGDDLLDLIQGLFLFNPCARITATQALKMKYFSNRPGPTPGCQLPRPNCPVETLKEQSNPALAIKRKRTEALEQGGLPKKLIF
Sequence of CDK7/Cyclin H/MAT1 complex (P51946 whole entry partner): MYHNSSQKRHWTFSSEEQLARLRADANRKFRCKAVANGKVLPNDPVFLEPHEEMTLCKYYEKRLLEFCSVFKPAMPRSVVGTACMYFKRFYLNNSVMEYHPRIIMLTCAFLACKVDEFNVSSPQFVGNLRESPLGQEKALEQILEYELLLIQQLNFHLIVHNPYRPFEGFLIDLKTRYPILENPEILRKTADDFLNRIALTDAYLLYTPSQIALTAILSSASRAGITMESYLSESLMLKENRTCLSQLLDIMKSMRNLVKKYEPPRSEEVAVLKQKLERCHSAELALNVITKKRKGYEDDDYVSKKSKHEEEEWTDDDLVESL
Sequence of CDK7/Cyclin H/MAT1 complex (P51948 whole entry partner): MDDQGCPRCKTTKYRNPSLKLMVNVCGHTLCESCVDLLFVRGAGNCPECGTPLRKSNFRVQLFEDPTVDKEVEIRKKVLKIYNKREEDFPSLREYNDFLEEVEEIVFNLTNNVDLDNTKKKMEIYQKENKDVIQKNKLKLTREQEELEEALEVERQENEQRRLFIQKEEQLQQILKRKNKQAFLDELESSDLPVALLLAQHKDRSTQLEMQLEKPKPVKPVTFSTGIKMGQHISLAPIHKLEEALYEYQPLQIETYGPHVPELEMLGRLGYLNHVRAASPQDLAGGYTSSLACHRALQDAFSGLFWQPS
Description: as §2, §3, §4

COV318 cells = assay: Inhibition of cell proliferation, CyQUANT Direct, COV318; format: cell-based; settings: Homo sapiens; COV318 ovarian cancer cells, 72-hour; read-out: COV 318 proliferation calculated IC50
Description: as §1

COV504 cells = assay: Inhibition of cell proliferation, CyQUANT Direct, COV504; format: cell-based; settings: Homo sapiens; COV504 ovarian cancer cells, 72-hour; read-out: COV 504 proliferation calculated IC50
Description: as §1

MB453 cells = assay: Inhibition of cell proliferation, CyQUANT Direct, MB453; format: cell-based, human; settings: Homo sapiens, read-out: MB 453 proliferation calculated IC50
Description: as §1

[2] = biological target: CDK12 (aa686-1082)/Cyclin K complex (Homo sapiens, UniProt Q9NYV4); assay: CDK12 kinase inhibition assay (Caliper/LabChip EZ Reader)
Sequence of CDK12 (aa686-1082)/Cyclin K complex (Q9NYV4 686-1082): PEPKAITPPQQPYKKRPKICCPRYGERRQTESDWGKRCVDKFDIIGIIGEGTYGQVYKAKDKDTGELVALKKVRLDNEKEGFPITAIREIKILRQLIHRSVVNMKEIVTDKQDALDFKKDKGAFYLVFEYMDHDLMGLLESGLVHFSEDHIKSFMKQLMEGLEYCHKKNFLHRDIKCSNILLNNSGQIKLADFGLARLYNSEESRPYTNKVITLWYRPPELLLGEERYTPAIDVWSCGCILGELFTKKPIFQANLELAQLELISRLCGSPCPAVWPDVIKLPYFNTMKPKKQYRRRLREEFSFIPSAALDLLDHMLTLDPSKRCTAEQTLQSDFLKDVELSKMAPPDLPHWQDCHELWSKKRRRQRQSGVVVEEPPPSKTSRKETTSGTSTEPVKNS
Sequence of CDK12 (aa686-1082)/Cyclin K complex (O75909 whole entry partner, the tested form may be a part): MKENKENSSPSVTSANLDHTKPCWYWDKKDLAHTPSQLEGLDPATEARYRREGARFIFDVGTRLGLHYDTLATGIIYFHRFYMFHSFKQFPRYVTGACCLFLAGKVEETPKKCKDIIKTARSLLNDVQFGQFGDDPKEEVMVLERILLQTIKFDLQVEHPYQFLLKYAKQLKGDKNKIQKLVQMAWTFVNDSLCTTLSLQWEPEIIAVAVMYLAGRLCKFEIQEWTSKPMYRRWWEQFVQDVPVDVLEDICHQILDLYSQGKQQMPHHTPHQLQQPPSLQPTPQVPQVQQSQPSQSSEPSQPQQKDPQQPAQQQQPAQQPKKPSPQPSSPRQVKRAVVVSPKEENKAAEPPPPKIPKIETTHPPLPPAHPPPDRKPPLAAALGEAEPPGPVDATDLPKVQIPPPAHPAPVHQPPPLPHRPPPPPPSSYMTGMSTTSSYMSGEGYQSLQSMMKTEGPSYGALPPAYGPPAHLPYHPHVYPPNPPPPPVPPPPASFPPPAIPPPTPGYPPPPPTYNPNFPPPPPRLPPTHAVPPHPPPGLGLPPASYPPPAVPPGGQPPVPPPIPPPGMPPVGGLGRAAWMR
Description: as §2, §3, §4

[3] = HCC70 triple negative breast cancer cells, 72-hour
[4] = MB453 triple negative breast cancer cells, 72-hour

Sequence of CDK9/Cyclin T1 complex (P50750 whole entry): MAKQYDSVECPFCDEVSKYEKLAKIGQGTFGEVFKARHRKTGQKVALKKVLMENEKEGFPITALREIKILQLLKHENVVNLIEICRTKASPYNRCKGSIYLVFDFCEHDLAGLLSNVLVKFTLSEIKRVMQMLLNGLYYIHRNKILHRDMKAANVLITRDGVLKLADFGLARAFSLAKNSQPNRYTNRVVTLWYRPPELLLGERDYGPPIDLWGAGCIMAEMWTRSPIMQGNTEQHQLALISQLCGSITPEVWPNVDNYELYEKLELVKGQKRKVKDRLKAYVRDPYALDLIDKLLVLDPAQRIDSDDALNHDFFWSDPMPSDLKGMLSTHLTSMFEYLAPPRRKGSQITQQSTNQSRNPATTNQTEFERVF
Sequence of CDK9/Cyclin T1 complex (O60563 whole entry partner): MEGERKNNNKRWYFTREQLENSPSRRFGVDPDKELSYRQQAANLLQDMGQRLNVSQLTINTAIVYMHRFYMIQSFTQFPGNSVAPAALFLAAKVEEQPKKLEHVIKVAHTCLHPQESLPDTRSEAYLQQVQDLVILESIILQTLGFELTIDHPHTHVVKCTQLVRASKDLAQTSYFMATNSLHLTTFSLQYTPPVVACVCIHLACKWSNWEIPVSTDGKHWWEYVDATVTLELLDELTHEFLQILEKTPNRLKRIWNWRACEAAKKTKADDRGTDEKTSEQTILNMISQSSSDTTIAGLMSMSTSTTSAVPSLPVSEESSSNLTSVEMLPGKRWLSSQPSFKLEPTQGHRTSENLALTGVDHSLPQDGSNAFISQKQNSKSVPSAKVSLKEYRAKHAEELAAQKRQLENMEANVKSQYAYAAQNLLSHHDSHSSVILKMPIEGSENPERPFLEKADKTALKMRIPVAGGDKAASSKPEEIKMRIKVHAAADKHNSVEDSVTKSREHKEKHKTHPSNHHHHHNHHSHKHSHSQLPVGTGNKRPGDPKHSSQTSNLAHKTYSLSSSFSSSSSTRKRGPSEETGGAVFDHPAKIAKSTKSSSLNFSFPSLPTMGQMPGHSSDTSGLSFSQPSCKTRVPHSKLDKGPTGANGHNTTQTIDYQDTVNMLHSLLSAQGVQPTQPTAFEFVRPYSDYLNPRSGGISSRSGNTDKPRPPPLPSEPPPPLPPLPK

| Structure (SMILES) | IC50 (CDK9/Cyclin T1 complex) | IC50 (HCC70 cells; [3]) | IC50 (CDK2/Cyclin E1 complex) | IC50 [1] | IC50 (COV318 cells) | IC50 (COV504 cells) | IC50 (MB453 cells; [4]) | IC50 [2] | IC50 (HCC70 cells; HCC70, 72 h) | IC50 (MB453 cells; 72 h) |
| --- | --- | --- | --- | --- | --- | --- | --- | --- | --- | --- |
| Cc1noc(C)c1-c1ccc2c(-c3nc(N[C@@H]4C[C@H]5CC[N@](CC5)C4)ncc3C(F)(F)F)cn(S(=O)(=O)c3ccccc3)c2n1 [Compound 142, (3R)—N-[4-[1-(benzenesulfonyl)-6-(3,5-dimethylisoxazol-4-yl)pyrrolo[2,3-b]pyridin-3-yl]-5-(trifluoromethyl)pyrimidin-2-yl]-1-azabicyclo[3.2.2]nonan-3-amine] | > 500 nM | 100 to 500 nM | > 500 nM | < 30 nM | 100 to 500 nM | 100 to 500 nM | 100 to 500 nM | > 500 nM |  |  |
| N#Cc1ccc2c(-c3nc(N[C@H]4CCC[C@@H]4N4CCOCC4)ncc3C(F)(F)F)c[nH]c2c1 [Compound 121] | > 500 nM | > 2000 nM | > 500 nM | 30 to 100 nM | > 2000 nM | > 2000 nM | > 2000 nM | > 500 nM |  |  |
| Cc1noc(C)c1-c1ccc2c(-c3nc(N[C@H]4C[C@H]5CC[N@](CC5)C4)ncc3C(F)(F)F)c[nH]c2n1 [Compound 141, (3S)—N-[4-[6-(3,5-dimethylisoxazol-4-yl)-1H-pyrrolo[2,3-b]pyridin-3-yl]-5-(trifluoromethyl)pyrimidin-2-yl]-1-azabicyclo[3.2.2]nonan-3-amine] | > 500 nM | < 100 nM | > 500 nM | < 30 nM | < 100 nM | < 100 nM | < 100 nM | > 500 nM |  |  |
| Cc1noc(C)c1-c1ccc2c(-c3nc(N[C@H]4CCC[C@@H]4N)ncc3C(F)(F)F)c[nH]c2c1 [Compound 118] | > 500 nM | 100 to 500 nM | > 500 nM | < 30 nM | < 100 nM | < 100 nM | < 100 nM | > 500 nM |  |  |
| N#Cc1ccc2c(-c3nc(NC[C@@H]4COCCN4)ncc3C(F)(F)F)c[nH]c2c1 [Compound 102] | > 500 nM | > 2000 nM | > 500 nM | > 500 nM | > 2000 nM | > 2000 nM | > 2000 nM | > 500 nM |  |  |
| N#Cc1ccc2c(-c3nc(N[C@@H]4C[C@@H]5CC[C@H]4N5)ncc3C(F)(F)F)c[nH]c2c1 [Compound 115, 3-[2-[[(1R,2R,4S)-7-azabicyclo[2.2.1]heptan-3-yl]amino]-5-(trifluoromethyl)pyrimidin-4-yl]-1H-indole-6-carbonitrile] | > 500 nM | 500 to 2000 nM | > 500 nM | 30 to 100 nM | 500 to 2000 nM | 100 to 500 nM | 100 to 500 nM | > 500 nM |  |  |
| Cc1noc(C)c1-c1ccc2c(-c3nc(N[C@@H]4C[C@@H]5CC[C@H]4N5)ncc3C(F)(F)F)c[nH]c2c1 [Compound 137, (1S,2S,4R)—N-[4-[6-(3,5-dimethylisoxazol-4-yl)-1H-indol-3-yl]-5-(trifluoromethyl)pyrimidin-2-yl]-7-azabicyclo-[2.2.1]-heptan-3-amine] | > 500 nM | < 100 nM | > 500 nM | < 30 nM | 100 to 500 nM | < 100 nM | < 100 nM | > 500 nM |  |  |
| CN(C)[C@H]1CCC[C@@H]1Nc1ncc(C(F)(F)F)c(-c2c[nH]c3cc(C#N)ccc23)n1 [Compound 124] | > 500 nM | 500 to 2000 nM | > 500 nM | 100 to 500 nM | > 2000 nM | 500 to 2000 nM | 500 to 2000 nM | > 500 nM |  |  |
| Cc1noc(C)c1-c1ccc2c(-c3nc(N[C@H]4C[C@H]5CC[C@@H]4N5)ncc3C(F)(F)F)c[nH]c2n1 [Compound 139] | > 500 nM | 100 to 500 nM | > 500 nM | < 30 nM | 500 to 2000 nM | 100 to 500 nM | 100 to 500 nM | > 500 nM |  |  |
| N#Cc1ccc2c(-c3nc(N[C@@H]4C[C@@H]5CCC4N5)ncc3C(F)(F)F)c[nH]c2c1 (racemic) [Compound 106, 3-(2-[[(+/−)-exo-7-azabicyclo[2.2.1]heptan-2-yl]amino]-5-(trifluoromethyl)pyrimidin-4-yl)-1H-indole-6-carbonitrile] | > 500 nM | 100 to 500 nM | > 500 nM | < 30 nM | 100 to 500 nM | 100 to 500 nM | 100 to 500 nM | > 500 nM |  |  |
| CCN[C@H]1CCC[C@@H]1Nc1ncc(C(F)(F)F)c(-c2c[nH]c3nc(-c4c(C)noc4C)ccc23)n1 [Compound 145, (1S, 2S)—N1-[4-[6-(3,5-dimethylisoxazol-4-yl)-1H-pyrrolo [2,3-b]pyridin-3-yl]-5-(trifluoromethyl)pyrimidin-2-yl]-N2-ethyl-cyclopentane-1,2-diamine] | > 500 nM |  | > 500 nM | < 30 nM | < 100 nM | < 100 nM |  | > 500 nM | < 100 nM | < 100 nM |
| CP(C)(=O)c1c(C#N)ccc2c(-c3nc(N[C@H]4CCC[C@@H]4N)ncc3C(F)(F)F)c[nH]c12 [Compound 161, 3-[2-[[(1S,2S)-2-aminocyclopentyl]amino]-5-(trifluoromethyl)pyrimidin-4-yl]-7-dimethylphosphoryl-1H-indole-6-carbonitrile] | > 500 nM | < 100 nM | > 500 nM | < 30 nM | 100 to 500 nM | < 100 nM | < 100 nM | > 500 nM |  |  |
| N#Cc1ccc2c(-c3nc(N[C@H]4CCC[C@@H]4N4CCCC4)ncc3C(F)(F)F)c[nH]c2c1 [Compound 122] | > 500 nM | 100 to 500 nM | > 500 nM | 30 to 100 nM | 100 to 500 nM | 100 to 500 nM | 100 to 500 nM | > 500 nM |  |  |
| Cc1noc(C)c1-c1ccc2c(-c3nc(N[C@H]4CCC[C@@H]4NCC(F)F)ncc3C(F)(F)F)c[nH]c2n1 [Compound 147, (1S, 2S)—N2-(2,2-difluoroethyl)-N1-[4-[6-(3,5-dimethylisoxazol-4-yl)-1H-pyrrolo[2,3-b]pyridin-3-yl]-5-(trifluoromethyl)pyrimidin-2-yl] cyclopentane-1,2-diamine] | > 500 nM | 500 to 2000 nM | > 500 nM | < 30 nM | > 2000 nM | 100 to 500 nM | 100 to 500 nM | > 500 nM |  |  |
| C[C@@H]1C[C@H](Nc2ncc(C(F)(F)F)c(-c3c[nH]c4cc(C#N)ccc34)n2)CN1 [Compound 108] | > 500 nM | 500 to 2000 nM | > 500 nM | 30 to 100 nM | > 2000 nM | 500 to 2000 nM | 500 to 2000 nM | > 500 nM |  |  |
| Cc1noc(C)c1-c1ccc2c(-c3nc(N[C@H]4CCCC4N4CCCC4)ncc3C(F)(F)F)c[nH]c2n1 (stereo partly drawn) [Compound 144, 4-[6-(3,5-dimethylisoxazol-4-yl)-1H-pyrrolo[2,3-b]pyridin-3-yl]-N-[(1S)-2-pyrrolidin-1-ylcyclopentyl]-5-(trifluoromethyl) pyrimidin-2-amine] | > 500 nM | 100 to 500 nM | > 500 nM | < 30 nM | < 100 nM | < 100 nM | < 100 nM | > 500 nM |  |  |
| N#Cc1ccc2c(-c3nc(N[C@H]4CC[C@@H]4N)ncc3C(F)(F)F)c[nH]c2c1 [Compound 103] | > 500 nM | 100 to 500 nM | > 500 nM | < 30 nM | 100 to 500 nM | 100 to 500 nM | 100 to 500 nM | > 500 nM |  |  |
| Cc1noc(C)c1-c1ccc2c(-c3nc(NC4CC[C@@H]4N4CCCC4)ncc3C(F)(F)F)c[nH]c2n1 (stereo in doubt) [Compound 149, 4-[6-(3,5-dimethylisoxazol-4-yl)-1H-pyrrolo[2,3-b]pyridin-3-yl]-N-(2-pyrrolidin-1-ylcyclobutyl)-5-(trifluoromethyl) pyrimidin-2-amine] | > 500 nM | < 100 nM | > 500 nM | < 30 nM | > 2000 nM | < 100 nM | < 100 nM | > 500 nM |  |  |
